Results reported in US7470668B2, “Method of use of specific natriuretic peptide receptor c ligands, transgenic non-human mammals expressing specific natriuretic peptide receptor c antagonists and cells thereof” (Enobia Pharma Inc., priority 2005, dated 2008).
Positions of bridges follow the written chain, without caps; N, C: chain ends. Residues, ends and D or L forms follow the SMILES beside them. No end group written: not given here.

What was measured:
[1] = tested on: primary rat osteoblastic cultures; conditions: cited from earlier work
[2] = target: T1, NPR-C (Homo sapiens, UniProt P17342); assay: ANP-stimulated cGMP in NPR-C overexpressing HEK293 cells; assay type: cell-based; conditions: NPR-C overexpressing cells, 0.1 nM ANP[1-28] alone
T1 construct: expressed in transfected cells; host or cells: HEK293, transient, pCDNA1.1 (CMV promoter)
T1 sequence (P17342 27-541): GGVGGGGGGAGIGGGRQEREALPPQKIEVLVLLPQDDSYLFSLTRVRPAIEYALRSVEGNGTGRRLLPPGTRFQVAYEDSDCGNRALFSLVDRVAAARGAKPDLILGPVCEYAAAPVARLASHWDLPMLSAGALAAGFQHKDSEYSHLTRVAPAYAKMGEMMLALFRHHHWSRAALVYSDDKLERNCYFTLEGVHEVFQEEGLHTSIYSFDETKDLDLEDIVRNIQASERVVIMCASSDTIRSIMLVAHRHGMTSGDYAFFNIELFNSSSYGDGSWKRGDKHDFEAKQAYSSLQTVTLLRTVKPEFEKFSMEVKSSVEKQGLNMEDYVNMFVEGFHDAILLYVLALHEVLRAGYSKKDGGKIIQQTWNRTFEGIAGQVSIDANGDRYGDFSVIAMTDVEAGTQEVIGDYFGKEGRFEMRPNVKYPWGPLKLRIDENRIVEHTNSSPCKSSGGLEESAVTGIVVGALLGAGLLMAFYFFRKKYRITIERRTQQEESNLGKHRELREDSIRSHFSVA
Source text: The expression plasmid for rat GC-A containing the entire coding sequence cloned between the NheI-KpnI sites of CMV-driven pBK plasmid (Stratagene, La Jolla, Calif.) was kindly provided by Dr. A. De Léan (Département de Pharmacologie, Université de Montréal). The human NPR-C and GC-B coding sequences were amplified by RT-PCR from human embryonic kidney polyA RNA (Clontech, Palo Alto, Calif.) with the following primer pairs: NPR-C-5′-[…]-3′(forward) (SEQ ID NO: 74) and 5′-[…]-3′ (SEQ ID NO: 75) (reverse); GC-B-5′-[…]-3′ (SEQ ID NO: 76) (forward) and 5′-[…]-3′ (SEQ ID NO: 77) (reverse). The resulting PCR products were then cloned downstream of the CMV-promoter into the pCDNA1.1 plasmid (Invitrogen, Burlington, ON, Canada). All constructs were validated by DNA sequencing.

[3] = target: T2, human GC-B (Homo sapiens, UniProt P20594); assay: Intracellular cGMP in GC-B transfected HEK293 cells; assay type: cell-based; conditions: 10 nM peptide, 15 min
T2 construct: expressed in transfected cells; host or cells: HEK293, transient, pCDNA1.1 (CMV promoter)
T2 sequence (P20594 23-1047): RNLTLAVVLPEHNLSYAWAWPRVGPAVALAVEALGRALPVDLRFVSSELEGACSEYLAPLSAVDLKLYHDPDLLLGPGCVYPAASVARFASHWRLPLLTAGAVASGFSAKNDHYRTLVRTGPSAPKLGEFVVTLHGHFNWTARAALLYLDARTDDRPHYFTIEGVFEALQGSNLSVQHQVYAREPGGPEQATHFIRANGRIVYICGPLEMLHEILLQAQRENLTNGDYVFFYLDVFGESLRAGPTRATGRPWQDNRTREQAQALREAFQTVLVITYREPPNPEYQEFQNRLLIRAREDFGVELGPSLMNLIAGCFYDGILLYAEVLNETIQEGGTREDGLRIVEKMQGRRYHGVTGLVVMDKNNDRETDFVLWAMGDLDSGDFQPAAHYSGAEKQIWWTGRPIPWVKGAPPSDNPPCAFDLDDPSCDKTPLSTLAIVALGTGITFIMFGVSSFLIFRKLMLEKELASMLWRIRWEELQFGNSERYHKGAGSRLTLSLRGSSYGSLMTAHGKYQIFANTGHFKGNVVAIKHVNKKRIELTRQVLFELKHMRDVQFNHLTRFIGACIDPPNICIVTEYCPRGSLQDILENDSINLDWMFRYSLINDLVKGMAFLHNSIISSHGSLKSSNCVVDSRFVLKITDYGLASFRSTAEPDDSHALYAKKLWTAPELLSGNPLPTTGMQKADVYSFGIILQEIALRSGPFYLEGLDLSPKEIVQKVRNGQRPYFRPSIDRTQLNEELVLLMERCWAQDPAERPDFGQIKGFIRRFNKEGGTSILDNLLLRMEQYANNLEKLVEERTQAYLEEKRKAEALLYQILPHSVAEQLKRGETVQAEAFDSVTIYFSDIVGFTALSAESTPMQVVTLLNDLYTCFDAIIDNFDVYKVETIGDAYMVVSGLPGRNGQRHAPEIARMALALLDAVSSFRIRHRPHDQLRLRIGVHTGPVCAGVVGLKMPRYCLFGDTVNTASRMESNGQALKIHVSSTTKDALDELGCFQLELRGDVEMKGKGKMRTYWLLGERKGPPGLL

[4] = tested on: foetal mouse tibial organ culture; conditions: ex vivo foetal mouse tibia; cited from earlier work
[5] = tested on: ATDC5 cells; assay: cGMP production in ATDC5 cells; assay type: cell-based, mouse; conditions: for cGMP production by peptide alone: 0.1 μM
Source text: To gain further insight into the cellular basis of the interaction between CNP and Ostn in endochondral bone formation, ATDC5 cells were used. These cells are a mouse chondrogenic cell line derived from embryogenic carcinoma cells (Shukunami et al., 1996). […] In another study, NPR-C was also found to be expressed in these cells and the amount of transcripts decreased in association with the chondrogenic differentiation (Fujishige et al., 1999). Therefore, ATDC5 cells are considered to be a good model to study the interaction between CNP and Ostn in vitro.
(§1) Cold and radio iodinated human Ostn[83-133] (SEQ ID NO: 41) were purchased from Phoenix Pharmaceutical co. (CA, USA). CNP was obtained from Sigma (St. Louis, USA) and rat C-ANF was purchased from Bachem (CA, USA). Cyclic GMP direct Biotrak™ EIA kit was obtained from Amersham Biosciences (Quebec, Canada) and DMEM/F-12 and PBS were obtained from Wisent (Quebec, Canada). Protease inhibitors were purchased from Roche (Quebec, Canada)
Cells, grown in 24-well plates to 90% confluence, were washed twice with PBS and incubated in DMEM/F12 containing 1 mM IBMX, a protease inhibitor cocktail (40 ul/ml of medium), 0.1% BSA with or without C-ANF (0.1 μM) or Ostn[83-133] (0.1 μM) for 10 min at 37° C. prior to the addition of varying concentrations of CNP. They were then incubated for 15 min. After incubation, cells were washed twice with PBS and scraped in ice-cold ethanol (65%). The supernatant, obtained by centrifuging at 2000×g for 15 min at 4° C., was evaporated to dryness via speed vac. The amount of cGMP was measured with cGMP direct Biotrak™ EIA kit.

[6] = target: T3, NPR-C (Mus musculus, UniProt P70180); assay: Competitive binding of 125I-Ostn[83-133] on ATDC5 cells
T3 construct: NPR-C was also found to be expressed in these cells; endogenous in cells; host or cells: ATDC5 (mouse chondrogenic cell line), intact cells
T3 sequence (P70180 41-536): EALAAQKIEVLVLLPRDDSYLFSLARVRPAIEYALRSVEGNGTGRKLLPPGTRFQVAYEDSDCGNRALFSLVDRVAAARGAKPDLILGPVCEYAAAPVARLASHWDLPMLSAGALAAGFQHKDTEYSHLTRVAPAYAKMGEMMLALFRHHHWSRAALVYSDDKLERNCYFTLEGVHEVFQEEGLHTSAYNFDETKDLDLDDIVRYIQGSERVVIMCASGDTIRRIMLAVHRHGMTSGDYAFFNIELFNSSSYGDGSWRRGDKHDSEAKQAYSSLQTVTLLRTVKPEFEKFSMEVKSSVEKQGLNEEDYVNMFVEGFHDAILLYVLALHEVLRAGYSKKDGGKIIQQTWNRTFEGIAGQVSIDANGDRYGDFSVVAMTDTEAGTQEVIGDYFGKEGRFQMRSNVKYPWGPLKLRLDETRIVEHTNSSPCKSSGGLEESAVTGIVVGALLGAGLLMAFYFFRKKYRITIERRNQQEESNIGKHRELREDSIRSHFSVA
Source text: To gain further insight into the cellular basis of the interaction between CNP and Ostn in endochondral bone formation, ATDC5 cells were used. These cells are a mouse chondrogenic cell line derived from embryogenic carcinoma cells (Shukunami et al., 1996). […] In another study, NPR-C was also found to be expressed in these cells and the amount of transcripts decreased in association with the chondrogenic differentiation (Fujishige et al., 1999).
as §1
ATDC5 cells, grown in 24-well plates to 90% confluence, were washed twice with cold PBS and incubated with 500 μl of DMEM/F-F12 containing 0.1% BSA (wt/vol), protease inhibitor (40 μl/ml of medium), ^1251-Ostn[83-133] (0.05 μCi/well) and varying concentration of cold Ostn[83-133] (SEQ ID NO: 41) for 90 min at 4° C. After incubation, cells were washed twice with ice-cold PBS and solubilized with 0.5-ml of 0.5 M NaOH.
The radioactivity was measured with gamma-counter (Wallac).

In the case of `CC[C@H](C)[C@@H]1NC(=O)[C@H](CCCNC(=N)N)NC(=O)[C@H](CC(=O)O)NC(=O)[C@H](CCSC)NC(=O)[C@H](CCCNC(=N)N)NC(=O)CNC(=O)CNC(=O)[C@H](Cc2ccccc2)NC(=O)[C@@H](NC(=O)[C@H](CO)NC(=O)[C@H](CO)NC(=O)[C@H](CCCNC(=N)N)NC(=O)[C@H](CCCNC(=N)N)NC(=O)[C@H](CC(C)C)NC(=O)[C@@H](N)CO)CSSC[C@@H](C(=O)N[C@@H](CC(N)=O)C(=O)N[C@@H](CO)C(=O)N[C@@H](Cc2ccccc2)C(=O)N[C@@H](CCCNC(=N)N)C(=O)N[C@@H](Cc2ccc(O)cc2)C(=O)O)NC(=O)CNC(=O)[C@H](CC(C)C)NC(=O)CNC(=O)[C@H](CO)NC(=O)[C@H](CCC(N)=O)NC(=O)[C@H](C)NC(=O)CNC1=O` [ANP], the “effect on osteoblast differentiation” value [1] is listed as “stimulated osteoblast differentiation”, the effect on proliferation [1] is listed as “inhibited proliferation” and the “increase in cGMP levels upon ANP stimulation” value [2] is listed as 1.5 fold.

In the case of “CNP: natriuretic peptide CNP (1-22) from Sigma; GC-B selective agonist”, the “effect on osteoblast differentiation” value [1] is given as “stimulated osteoblast differentiation”, the effect on proliferation [1] is given as “inhibited proliferation” and the “intracellular cGMP response via GC-B” value [3] is given as “greatest responses”. For the same compound, the “effect on bone length” value [4] was “significant increases in bone length” and the cGMP production ([5]; varying concentrations of CNP, 15 min) was “concentration-dependent cGMP production”.

In the case of “SFSGFGSPLDRLSAGSVDHKGKQRKVVDHPKRRFGIPMDRIGRNRLSNSRG [Ostn[83-133]]”, the “cGMP production by peptide alone” value [5] is reported as “only trace of cGMP production”, the “inhibition of bound 125I-Ostn[83-133]” value ([6]; 1 μM cold peptide) is reported as “More than 90%” and the total binding ([6]; ATDC5 cells, 24-well plates) is reported as 76.5 pmol/well.

In the case of `CC[C@H](C)[C@@H]1NC(=O)[C@H](CCCNC(=N)N)NC(=O)[C@H](CC(=O)O)NC(=O)[C@H]([C@@H](C)CC)NC(=O)[C@H](CCCNC(=N)N)NC(=O)CNC(=O)CNC(=O)[C@H](Cc2ccccc2)NC(=O)[C@@H](NC(=O)[C@H](CO)NC(=O)[C@H](CO)NC(=O)[C@@H](N)CCCNC(=N)N)CSSC[C@@H](C(N)=O)NC(=O)[C@H](C)NC(=O)CNC1=O` [C-ANF] (H-RSSCFGGRIDRIGAC-NH2; disulfide 4-15; N-terminus and C-terminus assumed), the “effect on osteoblast differentiation” value [1] is listed as “no effect”, the “effect on bone length” value [4] is listed as “no effect” and the “cGMP production by peptide alone” value [5] is listed as “only trace of cGMP production”. The IC50 [6] was 6.7 nM and the “maximal inhibition, less than that of cold Ostn[83-133]” value ([6]; 1 μM) was 15%.
